# From ChEMBL document CHEMBL1159031, “Cytotoxic quassinoids from Cedronia granatensis” (1992)
# Assays:
# Type in all cases: functional
# [1] = test system: LOX IMVI; assay: Cytotoxicity against human LOXIMVI cells; conditions: read-out: Log10LC50 (converted)
# [2] = test system: SF-295; assay: Cytotoxicity against human SF295 cells; conditions: read-out: Log10LC50 (converted)
# [3] = test system: M19-MEL; assay: Cytotoxicity against human M19-MEL cells; conditions: read-out: Log10LC50 (converted)
# [4] = test system: HCC 2998; assay: Cytotoxicity against human HCC2998 cells; conditions: read-out: Log10LC50 (converted)
# [5] = test system: HCT-116; assay: Cytotoxicity against human HCT116 cells; conditions: read-out: Log10LC50 (converted)
# [6] = test system: HOP-62; assay: Cytotoxicity against human HOP62 cells; conditions: read-out: Log10LC50 (converted)
# [7] = test system: SNB-75; assay: Cytotoxicity against human SNB75 cells; conditions: read-out: Log10LC50 (converted)
# [8] = test system: K562; assay: Cytotoxicity against human K562 cells; conditions: read-out: Log10LC50 (converted)
# [9] = test system: KM-20L2; assay: Cytotoxicity against human KM20L2 cells; conditions: read-out: Log10LC50 (converted)
# [10] = Cytotoxicity against human RXF631 cells; conditions: RXF 631, read-out: Log10LC50 (converted)
# [11] = test system: UACC-257; assay: Cytotoxicity against human UACC257 cells; conditions: read-out: Log10LC50 (converted)
# [12] = test system: HL-60(TB); assay: Cytotoxicity against human HL-60(TB) cells; conditions: read-out: Log10LC50 (converted)
# [13] = test system: UO-31; assay: Cytotoxicity against human UO31 cells; conditions: read-out: Log10LC50 (converted)
# [14] = test system: UACC-62; assay: Cytotoxicity against human UACC62 cells; conditions: read-out: Log10LC50 (converted)
# [15] = test system: CAKI-1; assay: Cytotoxicity against human Caki1 cells; conditions: read-out: Log10LC50 (converted)
# [16] = test system: ACHN; assay: Cytotoxicity against human ACHN cells; conditions: read-out: Log10LC50 (converted)
# [17] = test system: DMS-114; assay: Cytotoxicity against human DMS114 cells; conditions: read-out: Log10LC50 (converted)
# [18] = test system: SNB-78; assay: Cytotoxicity against human SNB78 cells; conditions: read-out: Log10LC50 (converted)
# [19] = test system: SNB-19; assay: Cytotoxicity against human SNB19 cells; conditions: read-out: Log10LC50 (converted)
# [20] = test system: RPMI-8226; assay: Cytotoxicity against human RPMI8226 cells; conditions: read-out: Log10LC50 (converted)
# [21] = test system: XF498; assay: Cytotoxicity against human XF498 cells; conditions: read-out: Log10LC50 (converted)
# [22] = test system: A549; assay: Cytotoxicity against human A549 cells; conditions: read-out: Log10LC50 (converted)
# [23] = test system: SF-268; assay: Cytotoxicity against human SF268 cells; conditions: read-out: Log10LC50 (converted)
# [24] = test system: HOP-18; assay: Cytotoxicity against human HOP18 cells; conditions: read-out: Log10LC50 (converted)
# [25] = test system: EKVX; assay: Cytotoxicity against human EKVX cells; conditions: read-out: Log10LC50 (converted)
# [26] = test system: OVCAR-3; assay: Cytotoxicity against human OVCAR-3 cells; conditions: read-out: Log10LC50 (converted)
# [27] = test system: OVCAR-8; assay: Cytotoxicity against human OVCAR8 cells; conditions: read-out: Log10LC50 (converted)
# [28] = test system: SK-MEL-28; assay: Cytotoxicity against human SK-MEL-28 cells; conditions: read-out: Log10LC50 (converted)
# [29] = test system: SR; assay: Cytotoxicity against human SR cells; conditions: read-out: Log10LC50 (converted)
# [30] = test system: KM12; assay: Cytotoxicity against human KM12 cells; conditions: read-out: Log10LC50 (converted)
# [31] = test system: MOLT-4; assay: Cytotoxicity against human MOLT4 cells; conditions: read-out: Log10LC50 (converted)
# [32] = test system: U-251; assay: Cytotoxicity against human U251 cells; conditions: read-out: Log10LC50 (converted)
# [33] = test system: OVCAR-5; assay: Cytotoxicity against human OVCAR5 cells; conditions: read-out: Log10LC50 (converted)
# [34] = test system: NCI-H226; assay: Cytotoxicity against human NCI-H226 cells; conditions: read-out: Log10LC50 (converted)
# [35] = test system: SN12C; assay: Cytotoxicity against human SN12C cells; conditions: read-out: Log10LC50 (converted)
# [36] = test system: Malme-3M; assay: Cytotoxicity against human MALME-3M cells; conditions: read-out: Log10LC50 (converted)
# [37] = test system: NCI-H23; assay: Cytotoxicity against human NCI-H23 cells; conditions: read-out: Log10LC50 (converted)
# [38] = Cytotoxicity against human LXFL 529L cells; conditions: read-out: Log10LC50 (converted)
# [39] = test system: IGROV-1; assay: Cytotoxicity against human IGROV1 cells; conditions: read-out: Log10LC50 (converted)
# [40] = test system: NCI-H460; assay: Cytotoxicity against human NCI-H460 cells; conditions: read-out: Log10LC50 (converted)
# [41] = test system: TK-10; assay: Cytotoxicity against human TK10 cells; conditions: read-out: Log10LC50 (converted)
# [42] = test system: NCI-H522; assay: Cytotoxicity against human NCI-H522 cells; conditions: read-out: Log10LC50 (converted)
# [43] = test system: SF-539; assay: Cytotoxicity against human SF539 cells; conditions: read-out: Log10LC50 (converted)
# [44] = Cytotoxicity against human NCI-H322 cells; conditions: read-out: Log10LC50 (converted)
# [45] = test system: DMS-273; assay: Cytotoxicity against human DMS273 cells; conditions: read-out: Log10LC50 (converted)
# [46] = test system: DLD-1; assay: Cytotoxicity against human DLD1 cells; conditions: read-out: Log10LC50 (converted)
# [47] = test system: SK-OV-3; assay: Cytotoxicity against human SKOV3 cells; conditions: read-out: Log10LC50 (converted)
# [48] = test system: HCT-15; assay: Cytotoxicity against human HCT15 cells; conditions: read-out: Log10LC50 (converted)
# [49] = test system: A498; assay: Cytotoxicity against human A498 cells; conditions: read-out: Log10LC50 (converted)
# [50] = Cytotoxicity against human 786-O cells; conditions: 786-0, read-out: Log10LC50 (converted)
# [51] = test system: RXF 393; assay: Cytotoxicity against human RXF393 cells; conditions: read-out: Log10LC50 (converted)
# [52] = test system: HOP-92; assay: Cytotoxicity against human HOP92 cells; conditions: read-out: Log10LC50 (converted)
# [53] = test system: SW-620; assay: Cytotoxicity against human SW620 cells; conditions: read-out: Log10LC50 (converted)
# [54] = test system: SK-MEL-5; assay: Cytotoxicity against human SK-MEL-5 cells; conditions: read-out: Log10LC50 (converted)
# [55] = test system: SK-MEL-2; assay: Cytotoxicity against human SK-MEL-2 cells; conditions: read-out: Log10LC50 (converted)
# [56] = test system: CCRF-CEM; assay: Cytotoxicity against human CCRF-CEM cells; conditions: read-out: Log10LC50 (converted)
# [57] = test system: OVCAR-4; assay: Cytotoxicity against human OVCAR4 cells; conditions: read-out: Log10LC50 (converted)
# [58] = test system: HT-29; assay: Cytotoxicity against human HT-29 cells; conditions: read-out: Log10LC50 (converted)
# [59] = test system: M14; assay: Cytotoxicity against human M14 cells; conditions: read-out: Log10LC50 (converted)
# [60] = test system: COLO 205; assay: Cytotoxicity against human COLO205 cells; conditions: read-out: Log10LC50 (converted)
compound,measurement,setting,value
COC(=O)[C@]12OC[C@]34[C@H]([C@@H](O)[C@@H]1O)[C@@]1(C)C=C5OC(=O)C=C5[C@@H](C)[C@@H]1C[C@H]3OC(=O)[C@H](OC(C)=O)[C@@H]24 [SERGEOLIDE],CC50,[1],288 nM
same,CC50,[2],380 nM
same,CC50,[3],19.9 nM
same,CC50,[4],28.8 nM
same,CC50,[5],129 nM
same,CC50,[6],1910 nM
same,CC50,[7],38.9 nM
same,CC50,[8],3980 nM
same,CC50,[9],3980 nM
same,CC50,[10],3720 nM
same,CC50,[11],58.9 nM
same,CC50,[12],57.5 nM
same,CC50,[13],2880 nM
same,CC50,[14],32.4 nM
same,CC50,[15],3980 nM
same,CC50,[16],3390 nM
same,CC50,[17],36.3 nM
same,CC50,[18],2510 nM
same,CC50,[19],3980 nM
same,CC50,[20],3980 nM
same,CC50,[21],58.9 nM
same,CC50,[22],3980 nM
same,CC50,[23],2090 nM
same,CC50,[24],3980 nM
same,CC50,[25],891 nM
same,CC50,[26],3980 nM
same,CC50,[27],776 nM
same,CC50,[28],120 nM
same,CC50,[29],3980 nM
same,CC50,[30],437 nM
same,CC50,[31],3890 nM
same,CC50,[32],3980 nM
same,CC50,[33],3310 nM
same,CC50,[34],66.1 nM
same,CC50,[35],3980 nM
same,CC50,[36],12 nM
same,CC50,[37],70.8 nM
same,CC50,[38],67.6 nM
same,CC50,[39],3980 nM
same,CC50,[40],457 nM
same,CC50,[41],3980 nM
same,CC50,[42],15.8 nM
same,CC50,[43],25.7 nM
same,CC50,[44],3980 nM
same,CC50,[45],110 nM
same,CC50,[46],3240 nM
same,CC50,[47],3980 nM
same,CC50,[48],1910 nM
same,CC50,[49],57.5 nM
same,CC50,[50],407 nM
same,CC50,[51],51.3 nM
same,CC50,[52],3980 nM
same,CC50,[53],3980 nM
same,CC50,[54],6.61 nM
same,CC50,[55],26.9 nM
same,CC50,[56],3980 nM
same,CC50,[57],44.7 nM
same,CC50,[58],3800 nM
same,CC50,[59],20.9 nM
same,CC50,[60],21.9 nM
